According to PubChem BioAssay AID1918942 (Molecular Pharmacology Branch, DTP, NCI, 2023):

System: 743489-274-T-PDC complex spheroid viability
Assay: Anticancer human tumor 743489-274-T-PDC patient-derived renal cell carcinoma cell line growth inhibition
Settings: for IC50: curve of first compound; for viability, T/C: stronger effect = lower value
Procedure, shortened: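 Multicellular complex spheroids of tumor cells with human endothelial cells (HUVEC) and mesenchymal stem cells; the LSD1 inhibitor iadademstat was combined with standard-of-care or investigational agents. Top concentration at or near clinical Cmax, half-log dilutions; final DMSO ≤0.25%.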
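Note: spheroids exposed to compounds for 7 days before readout.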
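Throughout, for viability, T/C: 100% = DMSO vehicle control wells.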

## O=C(c1cc(Cc2n[nH]c(=O)c3ccccc23)ccc1F)N1CCN(C(=O)C2CC2)CC1 + NC1CCC(NC2CC2c2ccccc2)CC1
Second compound 0.1 µM
  IC50: > 10 µM
Second compound 0.316 µM
  IC50: > 10 µM
Second compound 1 µM
  IC50: > 10 µM
Second compound 3.16 µM
  IC50: > 10 µM
Second compound 10 µM
  IC50: > 10 µM
Second compound 0.1 µM, first compound 0.0316 µM
  viability, T/C: 112%
Second compound 0.1 µM, first compound 0.1 µM
  viability, T/C: 111%
Second compound 0.1 µM, first compound 0.316 µM
  viability, T/C: 101%
Second compound 0.1 µM, first compound 1 µM
  viability, T/C: 101%
Second compound 0.1 µM, first compound 3.16 µM
  viability, T/C: 110%
Second compound 0.1 µM, first compound 10 µM
  viability, T/C: 106%
Second compound 0.316 µM, first compound 0.0316 µM
  viability, T/C: 104%
Second compound 0.316 µM, first compound 0.1 µM
  viability, T/C: 106%
Second compound 0.316 µM, first compound 0.316 µM
  viability, T/C: 120%
Second compound 0.316 µM, first compound 1 µM
  viability, T/C: 107%
Second compound 0.316 µM, first compound 3.16 µM
  viability, T/C: 124%
Second compound 0.316 µM, first compound 10 µM
  viability, T/C: 100%
Second compound 1 µM, first compound 0.0316 µM
  viability, T/C: 114%
Second compound 1 µM, first compound 0.1 µM
  viability, T/C: 100%
Second compound 1 µM, first compound 0.316 µM
  viability, T/C: 106%
Second compound 1 µM, first compound 1 µM
  viability, T/C: 110%
Second compound 1 µM, first compound 3.16 µM
  viability, T/C: 111%
Second compound 1 µM, first compound 10 µM
  viability, T/C: 108%
Second compound 3.16 µM, first compound 0.0316 µM
  viability, T/C: 117%
Second compound 3.16 µM, first compound 0.1 µM
  viability, T/C: 129%
Second compound 3.16 µM, first compound 0.316 µM
  viability, T/C: 120%
Second compound 3.16 µM, first compound 1 µM
  viability, T/C: 98.8%
Second compound 3.16 µM, first compound 3.16 µM
  viability, T/C: 100%
Second compound 3.16 µM, first compound 10 µM
  viability, T/C: 113%
Second compound 10 µM, first compound 0.0316 µM
  viability, T/C: 108%
Second compound 10 µM, first compound 0.1 µM
  viability, T/C: 116%
Second compound 10 µM, first compound 0.316 µM
  viability, T/C: 110%
Second compound 10 µM, first compound 1 µM
  viability, T/C: 119%
Second compound 10 µM, first compound 3.16 µM
  viability, T/C: 116%
Second compound 10 µM, first compound 10 µM
  viability, T/C: 89%
